Reference: ChEMBL document CHEMBL6134901 (J Med Chem, 2025)
Converted amounts (≈) assume the structure as drawn. The source made the active and inactive calls. The rule behind the calls is not given here.

Tests used:
Clostridioides difficile [1] = assay: Antibacterial activity against Clostridium difficile ATTC43255 assessed as spore germination inhibition incubated for 60 mins by spectrometry; type: functional, organism-based; settings: for IC50: ATTC43255, 1 h
[2] = AUC (0 to 24 hrs) in ICR mouse at 30 mg/kg, po measured for 1 to 24 hrs by UPLC analysis; type: ADME, organism-based; settings: in vivo, time 1-24 hrs
Acinetobacter baumannii = assay: Antibacterial activity against Acinetobacter baumannii ATCC 17961; type: functional
Clostridioides difficile [3] = assay: Inhibition of spore cortex degradation in Clostridium difficile assessed as greenish-blue spheres at 50 uM by Wirtz-Conklin staining based analysis; type: functional, organism-based
[4] = Drug concentration in feces of ICR mouse at 30 mg/kg, po measured after 24 hrs by UPLC analysis; type: ADME, organism-based; settings: in vivo
Bacteria [5] = assay: Binding affinity to bacterial prepro-SleC assessed as dissociation constant by MST assay
Enterococcus faecalis = assay: Antibacterial activity against Enterococcus faecalis ATCC 29212; type: functional
Escherichia coli = assay: Antibacterial activity against Escherichia coli ATCC 25922; type: functional
[6] = Cmax in feces of Golden Syrian hamster at 5 mg/kg, po bid measured for 5 days; type: ADME, organism-based, Mesocricetus auratus; settings: faeces, time 5 day
Clostridioides difficile [7] = assay: Post-antibiotic effect in Clostridium difficile ATTC43255 assessed as spore germination inhibition at 60 uM incubated for 1 hr followed by fresh medium replacement without compound measured up to 8 hrs; type: functional, organism-based
[8] = Cmax in ICR mouse at 30 mg/kg, po measured for 1 to 24 hrs by UPLC analysis; type: ADME, organism-based; settings: in vivo, time 1-24 hrs
Clostridioides difficile [9] = assay: Antibacterial activity against Clostridium difficile BAA1870 assessed as spore germination inhibition; type: functional, organism-based
[10] = Binding affinity to bacterial pro-SleC assessed as dissociation constant by MST assay; set-up: species or system Bacteria
Clostridioides difficile [11] = assay: Antibacterial activity against Clostridium difficile ATTC43255 assessed as inhibition of vegetative cells in presence of vancomycin; type: functional, organism-based
[12] = Cytotoxicity against human HepG2 cells incubated for 24 hrs by XTT assay; type: toxicity, cell-based; settings: read-out: LD50
[13] = Drug uptake in blood of ICR mouse assessed as drug absorption from intestines at 30 mg/kg, po measured for 1 to 24 hrs by UPLC analysis; type: ADME, organism-based; settings: in vivo, time 1-24 hrs
[14] = Drug concentration in liver of Golden Syrian hamster at 5 mg/kg, po bid measured after 8 hrs; type: ADME, organism-based, Mesocricetus auratus; settings: read-out: Ct
Bacteria [15] = assay: Binding affinity to bacterial GerS assessed as dissociation constant by MST assay
[16] = Binding affinity to bacterial CspB assessed as dissociation constant by MST assay; set-up: species or system Bacteria
Klebsiella pneumoniae = assay: Antibacterial activity against Klebsiella pneumoniae ATCC 700603; type: functional
[17] = test system: Limosilactobacillus reuteri; assay: Antibacterial activity against vancomycin-susceptible Lactobacillus reuteri HM-102 clinical isolate; type: functional
Clostridioides difficile [18] = assay: Antibacterial activity against Clostridium difficile ATTC43255 assessed as inhibition of vegetative cells; type: functional, organism-based
[19] = Binding affinity to bacterial cwID assessed as dissociation constant by MST assay; set-up: species or system Bacteria
Bacteria [20] = assay: Binding affinity to bacterial CspA assessed as dissociation constant by MST assay
Staphylococcus aureus [21] = assay: Inhibition of Staphylococcus aureus COL PBP1 at 5 ug/ml measured for 24 hrs by absorbance based assay; settings: dose 5.0 µg/ml
Pseudomonas aeruginosa = assay: Antibacterial activity against Pseudomonas aeruginosa ATCC 27853; type: functional
Bacillus subtilis = assay: Inhibition of Bacillus subtilis sacculi-derived SleC
[22] = test system: Staphylococcus haemolyticus; assay: Antibacterial activity against Staphylococcus haemolyticus ATCC 29970; type: functional
Eubacterium sp. = assay: Antibacterial activity against Eubacterium sp. HM-178; type: functional
Bacteroides fragilis = assay: Antibacterial activity against Bacteroides fragilis HM-709; type: functional
Clostridioides difficile [23] = assay: Antibacterial activity against Clostridium difficile ATTC43255 assessed as spore germination inhibition at 45 uM incubated for 60 mins by spectrometry relative to control; type: functional; settings: ATTC43255, 1 h
[24] = Drug concentration in feces of ICR mouse at 30 mg/kg, po measured after 8 hrs by UPLC analysis; type: ADME, organism-based; settings: faeces, read-out: Ct
[25] = Binding affinity to bacterial SleC assessed as dissociation constant by MST assay; set-up: species or system Bacteria
[26] = Terminal half life in ICR mouse at 30 mg/kg, po measured for 1 to 24 hrs by UPLC analysis; type: ADME, organism-based; settings: in vivo, time 1-24 hrs, read-out: beta t1/2 (converted)
Veillonella = assay: Antibacterial activity against Veillonella sp. HM-49; type: functional
[27] = Drug concentration in brain of Golden Syrian hamster at 5 mg/kg, po bid measured after 8 hrs; type: ADME, organism-based, Mesocricetus auratus; settings: read-out: Ct
Klebsiella aerogenes = assay: Antibacterial activity against Enterobacter aerogenes ATCC 35029; type: functional
Staphylococcus aureus [28] = assay: Inhibition of Staphylococcus aureus COL PBP2 at 5 ug/ml measured for 24 hrs by absorbance based assay; settings: dose 5.0 µg/ml
[29] = Drug concentration in kidney of Golden Syrian hamster at 5 mg/kg, po bid measured after 8 hrs; type: ADME, organism-based, Mesocricetus auratus; settings: read-out: Ct
Bacteria [30] = assay: Binding affinity to bacterial CspC assessed as dissociation constant by MST assay
Clostridioides difficile [31] = assay: Antibacterial activity against metronidazole-resistant Clostridium difficile […] clinical isolate; type: functional
Clostridioides difficile [32] = assay: Antibacterial activity against Clostridium difficile ATTC43255 incubated for 24 to 48 hrs anaerobically by colony counting method; type: functional; settings: time 24-48 hrs
[33] = Selectivity index, ratio of LD50 for cytotoxicity against human HepG2 cells to IC50 for antibacterial activity against Clostridium difficile ATTC43255 assessed as spore germination inhibition; type: toxicity, cell-based; settings: read-out: Ratio LD50/IC50
Staphylococcus aureus [34] = assay: Antibacterial activity against Staphylococcus aureus NRS119; type: functional
Bifidobacterium longum = assay: Antibacterial activity against Bifidobacterium longum HM-846; type: functional
Clostridioides difficile [35] = assay: Antibacterial activity against Clostridium difficile RMA23828; type: functional
[36] = test system: Staphylococcus epidermidis; assay: Antibacterial activity against Staphylococcus epidermidis ATCC 35547; type: functional
Fusobacterium nucleatum = assay: Antibacterial activity against methicillin/oxacillin/tetracycline-resistant mecA-positive Fusobacterium nucleatum HM-992; type: functional
Lactobacillus gasseri = assay: Antibacterial activity against Lactobacillus gasseri HM-644; type: functional
Clostridioides difficile [37] = assay: Antibacterial activity against Clostridium difficile RMA26675; type: functional
Staphylococcus aureus [38] = assay: Antibacterial activity against Staphylococcus aureus NRS100; type: functional
Staphylococcus aureus [39] = assay: Antibacterial activity against Staphylococcus aureus ATCC 29213; type: functional
Clostridioides difficile [40] = assay: Antibacterial activity against fidaxomicin-resistant Clostridium difficile RMA23691 clinical isolate; type: functional
Bacillus cereus = assay: Antibacterial activity against Bacillus cereus ATCC 13061; type: functional
Enterococcus faecium [41] = assay: Antibacterial activity against vancomycin-resistant Enterococcus faecium 106 clinical isolate; type: functional
Staphylococcus aureus [42] = assay: Antibacterial activity against vancomycin-resistant Staphylococcus aureus VRS1 clinical isolate; type: functional
Enterococcus faecium [43] = assay: Antibacterial activity against vancomycin-susceptible Enterococcus faecium 119-39A; type: functional

## Cl.NCc1ccc(-c2nc(-c3ccnc(Oc4ccc(C(F)(F)F)cc4)c3)no2)cc1
Clostridioides difficile [1]
  inhibition: Dose-dependent-effect
  IC50: 14 µM
[2]
  AUC(0-t): 17000 ng·h/mL
Acinetobacter baumannii
  MIC: > 128 µg/mL
Clostridioides difficile [3]
  inhibition: Active
[4]
  Ct: Below_limit_of_detection
Bacteria [5]
  Activity: inactive
Enterococcus faecalis
  MIC: 4 µg/mL
Escherichia coli
  MIC: > 128 µg/mL
[6]
  Cmax: ~4000 ng/g
Clostridioides difficile [7]
  inhibition: Active
[8]
  Cmax: 1440 ng/mL
Clostridioides difficile [9]
  IC50: 13 µM
[10]
  Kd: 16 µM
Clostridioides difficile [11]
  IC50: 22.7 µM
[12]
  CC50 at 24 h: 51 µg/mL
[13]
  Drug uptake: Active
[14]
  concentration at 8 h: 5600 ng/g
Bacteria [15]
  Activity: inactive
[16]
  Kd: 8 µM
Klebsiella pneumoniae
  MIC: > 128 µg/mL
[17]
  MIC: 32 µg/mL
Clostridioides difficile [18]
  IC50: 46.2 µM
[19]
  Kd: 54 µM
Bacteria [20]
  Activity: inactive
Staphylococcus aureus [21]
  inhibition: Active
Pseudomonas aeruginosa
  MIC: > 128 µg/mL
Bacillus subtilis
  inhibition: Active
[22]
  MIC: 8 µg/mL
Eubacterium sp.
  MIC: 16 µg/mL
Bacteroides fragilis
  MIC: 32 µg/mL
Clostridioides difficile [23]
  inhibition at 45 µM: 84%
[24]
  concentration at 8 h: 11000 ng/g
[25]
  Kd: 12 µM
[26]
  half-life: 6.3 h
Veillonella
  MIC: > 128 µg/mL
[27]
  concentration at 8 h: 15000 ng/g
Klebsiella aerogenes
  MIC: > 128 µg/mL
Staphylococcus aureus [28]
  inhibition: Active
[29]
  concentration at 8 h: 56000 ng/g
Bacteria [30]
  Activity: inactive
Clostridioides difficile [31]
  MIC: 16 µg/mL

## Cl.NCc1ccc(-c2nc(-c3ccc(Oc4ccc(F)cc4)cc3)no2)cc1
Clostridioides difficile [1]
  IC50: 45 µM
Clostridioides difficile [32]
  MIC: 16 µg/mL
[12]
  CC50 at 24 h: 38 µg/mL
Clostridioides difficile [23]
  inhibition at 45 µM: 60%
[33]
  selectivity ratio: 2

## CCc1c(Cl)c(O)c(Cl)c(O)c1C(=O)O[C@H]1[C@H](O)[C@H](OC)[C@H](OC/C2=C\C=C\C[C@H](O)/C(C)=C/[C@H](CC)[C@@H](O[C@@H]3OC(C)(C)[C@@H](OC(=O)C(C)C)[C@H](O)[C@@H]3O)/C(C)=C/C(C)=C/C[C@@H]([C@@H](C)O)OC2=O)O[C@@H]1C [FIDAXOMICIN]
Staphylococcus aureus [34]
  MIC: 2 µg/mL (≈ 1.89 µM)
Bifidobacterium longum
  MIC: 0.01 µg/mL (≈ 0.00945 µM)
Clostridioides difficile [35]
  MIC: > 8 µg/mL
Acinetobacter baumannii
  MIC: > 128 µg/mL
[36]
  MIC: 4 µg/mL (≈ 3.78 µM)
Enterococcus faecalis
  MIC: > 16 µg/mL
Escherichia coli
  MIC: > 128 µg/mL
Fusobacterium nucleatum
  MIC: < 0.06 µg/mL
Lactobacillus gasseri
  MIC: 2 µg/mL (≈ 1.89 µM)
Clostridioides difficile [37]
  MIC: 4 µg/mL (≈ 3.78 µM)
Staphylococcus aureus [38]
  MIC: 16 µg/mL (≈ 15.1 µM)
Klebsiella pneumoniae
  MIC: > 128 µg/mL
[17]
  MIC: > 32 µg/mL
Staphylococcus aureus [39]
  MIC: 16 µg/mL (≈ 15.1 µM)
Pseudomonas aeruginosa
  MIC: > 128 µg/mL
Clostridioides difficile [40]
  MIC: 4 µg/mL (≈ 3.78 µM)
[22]
  MIC: 16 µg/mL (≈ 15.1 µM)
Bacillus cereus
  MIC: 16 µg/mL (≈ 15.1 µM)
Eubacterium sp.
  MIC: 16 µg/mL (≈ 15.1 µM)
Bacteroides fragilis
  MIC: > 32 µg/mL
Veillonella
  MIC: 8 µg/mL (≈ 7.56 µM)
Enterococcus faecium [41]
  MIC: > 16 µg/mL
Klebsiella aerogenes
  MIC: > 128 µg/mL
Staphylococcus aureus [42]
  MIC: 64 µg/mL (≈ 60.5 µM)
Enterococcus faecium [43]
  MIC: > 16 µg/mL
Clostridioides difficile [31]
  MIC: 0.125 µg/mL (≈ 0.118 µM)

## Cl.NCc1ccc(-c2nc(-c3ccc(I)cc3)no2)cc1
Clostridioides difficile [1]
  IC50: 37 µM
Clostridioides difficile [32]
  MIC: 8 µg/mL
[12]
  CC50 at 24 h: 39 µg/mL
Clostridioides difficile [23]
  inhibition at 45 µM: 51%
[33]
  selectivity ratio: 3

## CN[C@H](CC(C)C)C(=O)N[C@H]1C(=O)N[C@@H](CC(N)=O)C(=O)N[C@H]2C(=O)N[C@H]3C(=O)N[C@H](C(=O)N[C@H](C(=O)O)c4cc(O)cc(O)c4-c4cc3ccc4O)[C@H](O)c3ccc(c(Cl)c3)Oc3cc2cc(c3O[C@@H]2O[C@H](CO)[C@@H](O)[C@H](O)[C@H]2O[C@H]2C[C@](C)(N)[C@H](O)[C@H](C)O2)Oc2ccc(cc2Cl)[C@H]1O [VANCOMYCIN]
Bifidobacterium longum
  MIC: 0.25 µg/mL (≈ 0.173 µM)
Clostridioides difficile [35]
  MIC: 0.5 µg/mL (≈ 0.345 µM)
Acinetobacter baumannii
  MIC: > 128 µg/mL
Enterococcus faecalis
  MIC: 2 µg/mL (≈ 1.38 µM)
Escherichia coli
  MIC: > 128 µg/mL
Fusobacterium nucleatum
  MIC: 0.25 µg/mL (≈ 0.173 µM)
Klebsiella pneumoniae
  MIC: > 128 µg/mL
[17]
  MIC: > 32 µg/mL
Pseudomonas aeruginosa
  MIC: > 128 µg/mL
Bacteroides fragilis
  MIC: 16 µg/mL (≈ 11 µM)
Veillonella
  MIC: > 32 µg/mL
Enterococcus faecium [41]
  MIC: > 16 µg/mL
Klebsiella aerogenes
  MIC: > 128 µg/mL
Staphylococcus aureus [42]
  MIC: 64 µg/mL (≈ 44.2 µM)
Clostridioides difficile [31]
  MIC: 0.25 µg/mL (≈ 0.173 µM)
